Structures are written as SMILES. Peptide text beside a SMILES is read from it.

The subject of one data set is blood glucose levels. The data set can be described thus: Arginine-induced changes in blood glucose in rats (glucose oxidase method). In kind it is in vivo, rat. The method, then:
(§1) Studies were made of the effects of the compound of this invention on arginine-induced changes in blood glucose, insulin and glucagon levels and the results obtained were compared with those of somatostatin.
(§2) Male SD rats weighing 300 to 500 g were anesthetized with sodium pentobarbital (60 mg/kg of body weight, by intraabdominal puncture) and polyethylene catheters were placed in their carotid artery. Saline was infused over 10 minutes, and arginine was infused at a rate of 3 g/kg/hr, for 60 minutes, using an infusion pump (at a rate of 4.5 ml/kg/hr). For 30 minutes, immediately after the start of arginine infusion, somatostatin or the compound of this invention was infused at rates of 4 μg/kg/hr, as a basal dose, 40 μg/kg/hr as 10 times as the basal dose, and 400 μg/kg/hr, as 100 times as the basal dose, respectively.
(§3) Before and 15 minutes, 30 minutes and 60 minutes after the start of arginine infusion, blood samples were taken in the presence of heparine. Blood glucose values were measured by the glucose oxidase method, and blood insulin and glucagon values were measured by the radioimmunoassay method.

The test system of a further data set is blood glucagon levels. Put plainly: Arginine-induced changes in blood glucagon in rats (radioimmunoassay). It counts as in vivo, rat. The method, then:
as §1, §2, §3

The subject of a further data set is blood insulin levels. Put plainly: Arginine-induced changes in blood insulin in rats (radioimmunoassay). It counts as in vivo, rat. The method, then:
as §1, §2, §3

Data set [1] is described as follows: Stability in pharmaceutical preparations. In kind it is physicochemical. Particulars: when used in pharmaceutical preparations.
A further data set in a line: Solubility in water. In kind it is physicochemical.
For a further data set, the system named is mouse. The data set can be described thus: Acute toxicity, infusion into the tail vein of a test mouse. It counts as in vivo. The method, then: The experiment for determining acute toxicity is carried out by infusing this compound into the tail vein of a test mouse in the amount of 5 mg/kg of body weight.
Where [2] appears, read: rats, arginine 3 g/kg/hr, substance infused for 30 minutes.

With `C[C@H](N)C(=O)NCC(=O)N[C@H]1CSSC[C@@H](C(=O)O)NC(=O)[C@H](CO)NC(=O)[C@H]([C@@H](C)O)NC(=O)[C@H](Cc2ccccc2)NC(=O)[C@H]([C@@H](C)O)NC(=O)[C@H](CCCCN)NC(=O)[C@H](Cc2c[nH]c3ccccc23)NC(=O)[C@H](Cc2ccccc2)NC(=O)[C@H](Cc2ccccc2)NC(=O)[C@H](CC(N)=O)NC(=O)[C@H](CCCCN)NC1=O` [somatostatin], the “blood glucose level versus control” value in the data set with blood glucose levels (at 100 times the basal dose (basal 4 μg/kg/hr), 30 minutes after start of arginine infusion) is reported as “Statistically significant low levels of blood glucose”; with blood glucose levels (at more than 10 times the basal dose (basal 4 μg/kg/hr), 15 minutes after start of arginine infusion) it was “Statistically significant low levels of blood glucose”. Further, the “rise in blood glucose levels induced by arginine” value with blood glucose levels (setting [2]) is listed as “inhibited”. Moreover, the “effect on blood glucagon level” value in the data set with blood glucagon levels (45 minutes after start of arginine infusion) is on record as “lost its effect”. Besides, in the data set with blood glucagon levels (at more than 10 times the basal dose, 15 minutes and 30 minutes after start of arginine infusion), the “blood glucagon level versus control” value is “significantly lowered its level”. Moreover, the “effect after the suspension of infusion” value in the data set with blood insulin levels (15 minutes after the suspension of infusion, conclusion on insulin and glucagon) was “its effect was no longer observed”. For the same compound, the “effect on blood insulin level after suspension of infusion” value in the data set with blood insulin levels (45 minutes after start of arginine infusion = 15 minutes after suspension of substance infusion) was “failed to exert its effect”. The “rise in blood insulin levels versus control” value with blood insulin levels (at more than 10 times the basal dose, 15 minutes after start of arginine infusion) is on record as “significantly inhibited”; in the data set with blood insulin levels (at more than 100 times the basal dose, 30 minutes after start of arginine infusion), “significantly inhibited”. The “rise in blood insulin levels (insulin secretion) enhanced by arginine” value in the data set with blood insulin levels (setting [2]) is “inhibited the rise in blood insulin levels dose dependently”.

For `C[C@@H](O)[C@@H]1NC(=O)[C@H](CCCCN)NC(=O)[C@@H](Cc2c[nH]c3ccccc23)NC(=O)[C@H](Cc2ccccc2)NC(=O)[C@H](Cc2ccccc2)NC(=O)[C@H](CC(N)=O)NC(=O)[C@H](CCCCN)NC(=O)CCCCC[C@H](C(=O)O)NC(=O)[C@H](CO)NC(=O)[C@H]([C@@H](C)O)NC(=O)[C@H](Cc2ccccc2)NC1=O` [the compound of this invention, Des-(Ala^1,Gly^2)-(D-Trp^8,D-Asu^3,14)-somatostatin] (HELM PEPTIDE1{K.N.F.F.[dW].K.T.F.T.S.[O=C(O)[C@@H](CCCCCC(=O)[*:3])N[*:1]]}$PEPTIDE1,PEPTIDE1,1:R1-11:R3$$$V2.0), in data set [1], the “stability compared with somatostatin” value is on record as “far superior to somatostatin”. Moreover, the solubility in water entry in the data set “Solubility in water” is “soluble in water”. Also, the “changes or side effects in respect of body weight, body temperature and blood sugar value” in the data set with mouse (tail vein infusion, 5 mg/kg of body weight) was “No significant changes or side effects were observed”. For the same compound, the acute toxicity entry with mouse (tail vein, concluded from the 5 mg/kg experiment) is “considered to be insignificant”.

The values above are taken from patent publication US4261885A, “Novel somatostatin analogue” (Shiraimatsu Shingaku Co., Ltd., priority 1978, dated 1981).
